The source of these data is patent US10101655B2, “Compound, polymer, photosensitive resin composition, and color filter” (SAMSUNG SDI CO., LTD., priority 2016, dated 2018).

This data set can be described thus: Evaluation 1: Solubility Measurement (dissolution state in dilution solvents). Type of data set: physicochemical. Conditions: stirred at 25° C. and 100 rpm for one hour; for Amount of dissolved compound (wt %), CH2Cl2: solvent CH2Cl2 added to 0.5 g of compound; for Amount of dissolved compound (wt %), MeOH: solvent MeOH added to 0.5 g of compound; for Amount of dissolved compound (wt %), Cyclohexanone: solvent cyclohexanone added to 0.5 g of compound. The method, then: Evaluation 1: Solubility Measurement
Dilution solvents (MeOH, CH2Cl2, cyclohexanone) were respectively added to 0.5 g of the compounds represented by Chemical Formula 6-1 to Chemical Formula 17-2 and the compound represented by Chemical Formula X-1, and each solution was stirred with Mixrotar VMR-5 (Iuchi Seieido Co., Ltd.) at 25° C. and 100 rpm for one hour.

Take `C=C(C)C(=O)OCCNC(=O)OCCN(CC)c1ccc2c(-c3ccccc3S(=O)(=O)[N-]S(=O)(=O)C(F)(F)F)c3cc/c(=[N+](\CCOC(=O)NCCOC(=O)C(=C)C)c4ccccc4)cc-3oc2c1` [Chemical Formula 12-2]: the “Amount of dissolved compound (wt %), CH2Cl2” value (“Amount … (wt %), CH2Cl2” for short) is given as above 10% wt %; the “Amount of dissolved compound (wt %), MeOH” value (from here on “Amount … (wt %), MeOH”) is given as above 10% wt %; the “Amount of dissolved compound (wt %), Cyclohexanone” value (“Amount … (wt %), Cyclohexanone” below) was above 5% wt %.

In the case of `CCN(CCOC(=O)NC1CCCCC1)c1ccc2c(-c3ccccc3S(=O)(=O)[N-]S(=O)(=O)C(F)(F)F)c3cc/c(=[N+](/CC)CCOC(=O)NC4CCCCC4)cc-3oc2c1` [Chemical Formula 17-2], the “Amount … (wt %), CH2Cl2” value is given as above 10% wt %; the “Amount … (wt %), MeOH” value is listed as above 10% wt %; the “Amount … (wt %), Cyclohexanone” value is given as above 3% wt %.

Take `C=C(C)C(=O)OCCNC(=O)OCCN(CC)c1ccc2c(-c3ccccc3S(=O)(=O)[N-]S(=O)(=O)C(F)(F)F)c3cc/c(=[N+](/CC)CCOC(=O)NCCOC(=O)C(=C)C)cc-3oc2c1` [Chemical Formula 10-2]: the “Amount … (wt %), CH2Cl2” value is listed as above 10% wt %; the “Amount … (wt %), MeOH” value is above 10% wt %; the “Amount … (wt %), Cyclohexanone” value was above 5% wt %.

Take `C=C(C)C(=O)OCCNC(=O)OCCN(CCCC)c1ccc2c(-c3ccccc3S(=O)(=O)[O-])c3cc/c(=[N+](/CCCC)CCOC(=O)NCCOC(=O)C(=C)C)cc-3oc2c1` [Chemical Formula 11-1]: the “Amount … (wt %), CH2Cl2” value is on record as above 10% wt %; the “Amount … (wt %), MeOH” value is given as above 10% wt %; the “Amount … (wt %), Cyclohexanone” value is reported as above 5% wt %.

For `C=C(C)C(=O)OCCNC(=O)OCCN(CC)c1ccc2c(-c3ccccc3S(=O)(=O)[N-]S(=O)(=O)C(F)(F)F)c3cc/c(=[N+](\CC)c4ccccc4)cc-3oc2c1` [Chemical Formula 8-2], the “Amount … (wt %), CH2Cl2” value was above 10% wt %; the “Amount … (wt %), MeOH” value was above 10% wt %; the “Amount … (wt %), Cyclohexanone” value is above 3% wt %.

With `C=C(C)c1cccc(C(C)(C)NC(=O)OCCN(CC)c2ccc3c(-c4ccccc4S(=O)(=O)[N-]S(=O)(=O)C(F)(F)F)c4cc/c(=[N+](/CC)CCOC(=O)NC(C)(C)c5cccc(C(=C)C)c5)cc-4oc3c2)c1` [Chemical Formula 15-2], the “Amount … (wt %), CH2Cl2” value is reported as above 10% wt %; the “Amount … (wt %), MeOH” value was above 10% wt %; the “Amount … (wt %), Cyclohexanone” value was above 5% wt %.

In the case of `C=CC(=O)OCCNC(=O)OCCN(CC)c1ccc2c(-c3ccccc3S(=O)(=O)[N-]S(=O)(=O)C(F)(F)F)c3cc/c(=[N+](/CC)CCOC(=O)NCCOC(=O)C=C)cc-3oc2c1` [Chemical Formula 14-2], the “Amount … (wt %), CH2Cl2” value is above 10% wt %; the “Amount … (wt %), MeOH” value is given as above 10% wt %; the “Amount … (wt %), Cyclohexanone” value was above 5% wt %.

On to `CCN(CCOC(=O)NC1CCCCC1)c1ccc2c(-c3ccccc3S(=O)(=O)[O-])c3ccc(=[N+](CC)CC)cc-3oc2c1` [Chemical Formula 16-1], for which the “Amount … (wt %), CH2Cl2” value is above 10% wt %; the “Amount … (wt %), MeOH” value is above 10% wt %; the “Amount … (wt %), Cyclohexanone” value was above 1% wt %.

As to `CCN(CCOC(=O)Nc1ccccc1)c1ccc2c(-c3ccccc3S(=O)(=O)[O-])c3cc/c(=[N+](/CC)CCOC(=O)Nc4ccccc4)cc-3oc2c1` [Chemical Formula 13-1], the “Amount … (wt %), CH2Cl2” value is given as above 10% wt %; the “Amount … (wt %), MeOH” value was above 10% wt %; the “Amount … (wt %), Cyclohexanone” value was above 3% wt %.

Regarding `CCN(CC)c1ccc2c(-c3ccccc3S(=O)(=O)O)c3ccc(=[N+](CC)CC)cc-3oc2c1` [Chemical Formula X-1, reference compound], the “Amount … (wt %), CH2Cl2” value is below 1% wt %; the “Amount … (wt %), MeOH” value is reported as above 10% wt %; the “Amount … (wt %), Cyclohexanone” value was below 1% wt %.

Regarding `C=C(C)c1cccc(C(C)(C)NC(=O)OCCN(CC)c2ccc3c(-c4ccccc4S(=O)(=O)[O-])c4cc/c(=[N+](/CC)CCOC(=O)NC(C)(C)c5cccc(C(=C)C)c5)cc-4oc3c2)c1` [Chemical Formula 15-1], the “Amount … (wt %), CH2Cl2” value is above 10% wt %; the “Amount … (wt %), MeOH” value is recorded as above 10% wt %; the “Amount … (wt %), Cyclohexanone” value is listed as above 5% wt %.

In the case of `CCN(CCOC(=O)Nc1ccccc1)c1ccc2c(-c3ccccc3S(=O)(=O)[O-])c3ccc(=[N+](CC)CC)cc-3oc2c1` [Chemical Formula 9-1], the “Amount … (wt %), CH2Cl2” value is above 10% wt %; the “Amount … (wt %), MeOH” value is above 10% wt %; the “Amount … (wt %), Cyclohexanone” value is given as above 1% wt %.

As for `C=C(C)C(=O)OCCNC(=O)OCCN(CC)c1ccc2c(-c3ccccc3S(=O)(=O)[O-])c3cc/c(=[N+](\CC)c4ccccc4)cc-3oc2c1` [Chemical Formula 8-1], the “Amount … (wt %), CH2Cl2” value was above 10% wt %; the “Amount … (wt %), MeOH” value is above 10% wt %; the “Amount … (wt %), Cyclohexanone” value was above 3% wt %.

Consider `C=CC(=O)OCCNC(=O)OCCN(CC)c1ccc2c(-c3ccccc3S(=O)(=O)[O-])c3cc/c(=[N+](/CC)CCOC(=O)NCCOC(=O)C=C)cc-3oc2c1` [Chemical Formula 14-1], for which the “Amount … (wt %), CH2Cl2” value was above 10% wt %; the “Amount … (wt %), MeOH” value is recorded as above 10% wt %; the “Amount … (wt %), Cyclohexanone” value is on record as above 5% wt %.

On to `CCN(CCOC(=O)Nc1ccccc1)c1ccc2c(-c3ccccc3S(=O)(=O)[N-]S(=O)(=O)C(F)(F)F)c3cc/c(=[N+](/CC)CCOC(=O)Nc4ccccc4)cc-3oc2c1` [Chemical Formula 13-2], for which the “Amount … (wt %), CH2Cl2” value is above 10% wt %; the “Amount … (wt %), MeOH” value was above 10% wt %; the “Amount … (wt %), Cyclohexanone” value is given as above 3% wt %.

On to `CCN(CCOC(=O)NC1CCCCC1)c1ccc2c(-c3ccccc3S(=O)(=O)[N-]S(=O)(=O)C(F)(F)F)c3ccc(=[N+](CC)CC)cc-3oc2c1` [Chemical Formula 16-2], for which the “Amount … (wt %), CH2Cl2” value is given as above 10% wt %; the “Amount … (wt %), MeOH” value is above 10% wt %; the “Amount … (wt %), Cyclohexanone” value is above 1% wt %.

In the case of `C=C(C)C(=O)OCCNC(=O)OCCN(CC)c1ccc2c(-c3ccccc3S(=O)(=O)[O-])c3cc/c(=[N+](/CC)CCOC(=O)NCCOC(=O)C(=C)C)cc-3oc2c1` [Chemical Formula 10-1], the “Amount … (wt %), CH2Cl2” value is above 10% wt %; the “Amount … (wt %), MeOH” value was above 10% wt %; the “Amount … (wt %), Cyclohexanone” value is on record as above 5% wt %.

With `CCN(CCOC(=O)Nc1ccccc1)c1ccc2c(-c3ccccc3S(=O)(=O)[N-]S(=O)(=O)C(F)(F)F)c3ccc(=[N+](CC)CC)cc-3oc2c1` [Chemical Formula 9-2], the “Amount … (wt %), CH2Cl2” value was above 10% wt %; the “Amount … (wt %), MeOH” value is above 10% wt %; the “Amount … (wt %), Cyclohexanone” value is given as above 1% wt %.

Turning to `C=C(C)C(=O)OCCNC(=O)OCCN(CCCC)c1ccc2c(-c3ccccc3S(=O)(=O)[N-]S(=O)(=O)C(F)(F)F)c3cc/c(=[N+](/CCCC)CCOC(=O)NCCOC(=O)C(=C)C)cc-3oc2c1` [Chemical Formula 11-2], the “Amount … (wt %), CH2Cl2” value is given as above 10% wt %; the “Amount … (wt %), MeOH” value is above 10% wt %; the “Amount … (wt %), Cyclohexanone” value is given as above 5% wt %.

In the case of `CCN(CCOC(=O)NC1CCCCC1)c1ccc2c(-c3ccccc3S(=O)(=O)[O-])c3cc/c(=[N+](/CC)CCOC(=O)NC4CCCCC4)cc-3oc2c1` [Chemical Formula 17-1], the “Amount … (wt %), CH2Cl2” value was above 10% wt %; the “Amount … (wt %), MeOH” value is given as above 10% wt %; the “Amount … (wt %), Cyclohexanone” value is above 3% wt %.

For the compound `C=C(C)C(=O)OCCNC(=O)OCCN(CC)c1ccc2c(-c3ccccc3S(=O)(=O)[O-])c3ccc(=[N+](CC)CC)cc-3oc2c1` [Chemical Formula 6-1], the “Amount … (wt %), CH2Cl2” value is above 10% wt %; the “Amount … (wt %), MeOH” value is above 10% wt %; the “Amount … (wt %), Cyclohexanone” value is recorded as above 3% wt %.

Regarding `C=C(C)C(=O)OCCNC(=O)OCCN(CC)c1ccc2c(-c3ccccc3S(=O)(=O)[N-]S(=O)(=O)C(F)(F)F)c3ccc(=[N+](CC)CC)cc-3oc2c1` [Chemical Formula 6-2], the “Amount … (wt %), CH2Cl2” value is above 10% wt %; the “Amount … (wt %), MeOH” value is given as above 10% wt %; the “Amount … (wt %), Cyclohexanone” value is reported as above 3% wt %.

Take `C=C(C)C(=O)OCCNC(=O)OCCN(CC)c1ccc2c(-c3ccccc3S(=O)(=O)[O-])c3cc/c(=[N+](\CCOC(=O)NCCOC(=O)C(=C)C)c4ccccc4)cc-3oc2c1` [Chemical Formula 12-1]: the “Amount … (wt %), CH2Cl2” value was above 10% wt %; the “Amount … (wt %), MeOH” value is above 10% wt %; the “Amount … (wt %), Cyclohexanone” value was above 5% wt %.

For the compound `C=C(C)C(=O)OCCNC(=O)OCCN(CCCC)c1ccc2c(-c3ccccc3S(=O)(=O)[O-])c3cc/c(=[N+](\CC)CCCC)cc-3oc2c1` [Chemical Formula 7-1], the “Amount … (wt %), CH2Cl2” value was above 10% wt %; the “Amount … (wt %), MeOH” value is reported as above 10% wt %; the “Amount … (wt %), Cyclohexanone” value is on record as above 3% wt %.

With `C=C(C)C(=O)OCCNC(=O)OCCN(CCCC)c1ccc2c(-c3ccccc3S(=O)(=O)[N-]S(=O)(=O)C(F)(F)F)c3cc/c(=[N+](\CC)CCCC)cc-3oc2c1` [Chemical Formula 7-2], the “Amount … (wt %), CH2Cl2” value was above 10% wt %; the “Amount … (wt %), MeOH” value is listed as above 10% wt %; the “Amount … (wt %), Cyclohexanone” value is on record as above 3% wt %.
